The values below come from US20250320213A1, “Nitrogen-Containing Heterocyclic Compounds” (Pfizer Inc., priority 2024, published 2025).

In assay [1] the test system is CCL17 secretion in peripheral human whole blood. The experiment in a line: Human Whole Blood (HWB) CCL17 TR-FRET Assay (IL-13 stimulated CCL17 secretion). It is filed as cell-based. The method in brief:
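Heparinized human whole blood was preincubated with compound (11-point, 3-fold series) for 2 h at 37°C, then stimulated with IL-13 (10 ng/mL final) for 48 h. Serum CCL17 was measured by TR-FRET sandwich immunoassay (665/615 nm ratio) after 16 h at room temperature, giving IC50.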
On the technique in general: TR-FRET usually uses a lanthanide donor and a delayed reading to cut background.

For assay [2], the target named is T1, STAT6 (Homo sapiens, UniProt P42226).
T1 construct: stably transfected HaCaT keratinocyte cell line, which expresses NanoLuc luciferase reporter gene under the transcriptional control of the STAT6 responsive promoter; endogenous in cells; host or cells: HaCaT keratinocyte reporter cell line (stably transfected with a NanoLuc reporter)
T1 sequence (P42226 1-847): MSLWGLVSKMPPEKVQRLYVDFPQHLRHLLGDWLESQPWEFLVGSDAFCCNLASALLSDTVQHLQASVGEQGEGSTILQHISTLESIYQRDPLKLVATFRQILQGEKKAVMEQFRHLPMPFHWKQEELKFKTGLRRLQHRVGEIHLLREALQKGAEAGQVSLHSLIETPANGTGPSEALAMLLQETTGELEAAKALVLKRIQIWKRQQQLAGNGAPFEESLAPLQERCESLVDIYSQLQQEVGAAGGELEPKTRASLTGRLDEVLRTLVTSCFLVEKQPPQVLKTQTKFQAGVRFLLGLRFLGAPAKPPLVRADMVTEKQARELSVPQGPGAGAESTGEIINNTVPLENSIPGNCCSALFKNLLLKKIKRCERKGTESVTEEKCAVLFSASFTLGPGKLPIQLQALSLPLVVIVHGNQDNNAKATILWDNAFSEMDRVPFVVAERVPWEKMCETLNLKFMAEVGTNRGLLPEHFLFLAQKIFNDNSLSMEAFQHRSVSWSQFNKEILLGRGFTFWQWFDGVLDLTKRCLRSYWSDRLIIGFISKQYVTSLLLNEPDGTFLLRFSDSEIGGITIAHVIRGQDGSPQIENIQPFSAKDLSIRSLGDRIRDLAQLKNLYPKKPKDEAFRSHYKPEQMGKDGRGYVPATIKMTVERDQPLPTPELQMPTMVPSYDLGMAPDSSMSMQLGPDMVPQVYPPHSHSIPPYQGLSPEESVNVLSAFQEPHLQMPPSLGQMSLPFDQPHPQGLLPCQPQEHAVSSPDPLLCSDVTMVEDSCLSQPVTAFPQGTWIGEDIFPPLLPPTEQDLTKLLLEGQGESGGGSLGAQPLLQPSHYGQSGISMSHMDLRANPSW
Kind of assay: STAT6 Reporter Luciferase Assay (IL-13 stimulated HaCaT keratinocyte NanoLuc reporter cells). The format is cell-based. The note with it: read-out: Reporter EC50. Summed up:
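Stably transfected HaCaT cells carrying NanoLuc under the STAT6-responsive IL-13Ra2 promoter were pre-treated with compound (11-point, 4-fold series, duplicate) for 2 h at 37 °C, then stimulated with 0.12 nM IL-13 for 4 h. Nano-Glo luminescence was read after 15 min.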

Setting [3] is: IL-13 stimulated HaCaT STAT6 NanoLuc reporter cells.
Where [4] appears, read: Homo sapiens, 48 h, human whole blood, 10 ng/mL IL13, 48 hours.
Where [5] appears, read: Homo sapiens, 48 h, inhibition of CCL17 secretion in human whole blood, 10 ng/mL IL13, 48 hours.
Setting [6] is: STAT6 NanoLuc luciferase reporter, IL-13 stimulated HaCaT keratinocyte cells.
The mark [7] stands for this setting: Homo sapiens, 48 h, human whole blood, IL-13 stimulated.

Usually IC50 stands for the point on the concentration scale where inhibition reaches its midpoint. A low value points to greater potency. A word on the EC50: it is the concentration at which the effect is half-maximal.

Like-named read-outs stand apart in the source and are kept apart here.

For `CCn1nc(C(=O)NCc2ccc(NC(=O)N(C)C)cc2)c2c1C(C(F)(F)F)CN(c1ccc(C(=O)N(C)C)cn1)C2` (single isomer, unassigned) [Example 303, rel-(R or S)-5-(5-(dimethylcarbamoyl)pyridin-2-yl)-N-(4-(3,3-dimethylureido)benzyl)-1-ethyl-7-(trifluoromethyl)-4,5,6,7-tetrahydro-1H-pyrazolo[4,3-c]pyridine-3-carboxamide], in assay [1] (human whole blood, IL-13 stimulated, 48 hours), half-maximal inhibition (IC50) was put at 334 nM. Moreover, the 50% effective concentration (EC50) in assay [2] (setting [3]) was determined as 22 nM.
With `CC(C)n1nc(C(=O)NCc2ccc(NC(=O)N(C)C)cc2)c2c1C(C(F)(F)F)CN(c1ccc(C(=O)N(C)C)cn1)C2` (single isomer, unassigned) [Example 548, rel-(R or S)-5-(5-(Dimethylcarbamoyl)pyridin-2-yl)-N-(4-(3,3-dimethylureido)benzyl)-1-isopropyl-7-(trifluoromethyl)-4,5,6,7-tetrahydro-1H-pyrazolo[4,3-c]pyridine-3-carboxamide], the half-maximal inhibitory concentration (IC50) in assay [1] (human whole blood, 10 ng/mL IL13, 48 hours) was 199 nM. Moreover, the half-maximal effective concentration (EC50) in assay [2] (setting [3]) was determined as 15 nM.
Compound `CC(C)n1nc(C(=O)NCc2ccc(NC(=O)N3CC(N)C3)cc2)c2c1[C@@H](C)CN(c1ccc(C(=O)N(C)C)cc1)C2` [Example 627, (S)-N-(4-(3-aminoazetidine-1-carboxamido)benzyl)-5-(4-(dimethylcarbamoyl)phenyl)-1-isopropyl-7-methyl-4,5,6,7-tetrahydro-1H-pyrazolo[4,3-c]pyridine-3-carboxamide] came in with an IC50 in assay [1] (setting [4]) of 23 nM. Besides, the concentration giving a half-maximal response (EC50) in assay [2] (setting [3]) was found to be 7 nM.
In turn, `CN(C)C(=O)Nc1ccc(CNC(=O)c2nn(C3CCC3)c3c2CN(c2ccc(C(=O)N(C)C)cn2)CC3)cc1` [Example 96, 1-cyclobutyl-5-(5-(dimethylcarbamoyl)pyridin-2-yl)-N-(4-(3,3-dimethylureido)benzyl)-4,5,6,7-tetrahydro-1H-pyrazolo[4,3-c]pyridine-3-carboxamide] returned an IC50 in assay [1] (setting [5]) of 66 nM. Also, the EC50 in assay [2] (setting [6]) is 5 nM.
Regarding `CC(C)n1nc(C(=O)NCc2ccc(NC(=O)N3CCNCC3)c(Cl)c2)c2c1[C@@H](C)CN(c1ccc(C(=O)N(C)C)cc1)C2` [Example 596, (S)-N-(3-chloro-4-(piperazine-1-carboxamido)benzyl)-5-(4-(dimethylcarbamoyl)phenyl)-1-isopropyl-7-methyl-4,5,6,7-tetrahydro-1H-pyrazolo[4,3-c]pyridine-3-carboxamide], it took 45 nM to reach half-maximal inhibition in assay [1] (setting [4]) (IC50). The half-maximal effective concentration (EC50) in assay [2] (setting [3]) was found to be 3 nM.
For `CCC1Cc2c(c(C(=O)NCc3ccc(NC(=O)N(C)C)cc3)nn2CC)CN1c1ccc(C(=O)N(C)C)cn1` (single isomer, unassigned) [Example 118, rel-(R or S)-5-(5-(dimethylcarbamoyl)pyridin-2-yl)-N-(4-(3,3-dimethylureido)benzyl)-1,6-diethyl-4,5,6,7-tetrahydro-1H-pyrazolo[4,3-c]pyridine-3-carboxamide], the IC50 in assay [1] (inhibition of CCL17 secretion in human whole blood, 10 ng/mL IL13, 48 hours) turned out to be 116 nM. In addition, the EC50 in assay [2] (setting [6]) stood at 25 nM.
As for `CC(C)n1nc(C(=O)NCc2ccc(NC(=O)N3C[C@@H](F)[C@@H](F)C3)cc2)c2c1CCN(c1ccc(C(=O)N(C)C)cn1)C2` [Example 140, N-(4-((3R,4S)-3,4-difluoropyrrolidine-1-carboxamido)benzyl)-5-(5-(dimethylcarbamoyl)pyridin-2-yl)-1-isopropyl-4,5,6,7-tetrahydro-1H-pyrazolo[4,3-c]pyridine-3-carboxamide], the 50% inhibitory concentration (IC50) in assay [1] (setting [5]) is 144 nM. Further, in assay [2] (setting [6]), the EC50 worked out at 12 nM.
As for `CC(C)n1nc(C(=O)NCc2ccc(-c3ncc[nH]3)cc2)c2c1[C@@H](C)CN(c1ncc(N3CCCC3=O)cn1)C2` [Example 487, (S)-N-(4-(1H-imidazol-2-yl)benzyl)-1-isopropyl-7-methyl-5-(5-(2-oxopyrrolidin-1-yl)pyrimidin-2-yl)-4,5,6,7-tetrahydro-1H-pyrazolo[4,3-c]pyridine-3-carboxamide], half-maximal inhibition in assay [1] (setting [7]) (IC50) was put at 16 nM. Also, the 50% effective concentration (EC50) in assay [2] (setting [3]) worked out at 2 nM.
Regarding `CC(C)n1nc(C(=O)NCc2ccc(NC(=O)N3CCC4(CC3)CN(C)C4)cc2)c2c1[C@@H](C)CN(c1ccc(-n3ccccc3=O)cn1)C2` [Example 633, (S)-1-isopropyl-7-methyl-N-(4-(2-methyl-2,7-diazaspiro[3.5]nonane-7-carboxamido)benzyl)-5-(2-oxo-2H-[1,3′-bipyridin]-6′-yl)-4,5,6,7-tetrahydro-1H-pyrazolo[4,3-c]pyridine-3-carboxamide], the midpoint of inhibition in assay [1] (setting [4]), the IC50, lay at 13 nM. The EC50 in assay [2] (setting [3]) amounted to 2 nM.
In turn, `CNC(=O)Nc1ccc(CNC(=O)c2nn(C(C)C)c3c2CN(c2ccc(C(=O)N(C)C)cn2)CC3)cc1` [Example 134, 5-(5-(dimethylcarbamoyl)pyridin-2-yl)-1-isopropyl-N-(4-(3-methylureido)benzyl)-4,5,6,7-tetrahydro-1H-pyrazolo[4,3-c]pyridine-3-carboxamide] came in with a half-inhibitory concentration (IC50) in assay [1] (setting [5]) of 46 nM. Besides, the concentration giving a half-maximal response (EC50) in assay [2] (setting [6]) worked out at 7 nM.
The like results for `CN(C)C(=O)Nc1ccc(CNC(=O)c2nn(C(C)(C)C)c3c2CN(c2ccc(C(=O)N(C)C)cn2)CC3)cc1` [Example 148, 1-(tert-butyl)-5-(5-(dimethylcarbamoyl)pyridin-2-yl)-N-(4-(3,3-dimethylureido)benzyl)-4,5,6,7-tetrahydro-1H-pyrazolo[4,3-c]pyridine-3-carboxamide] were, in that order, 176 nM and 10 nM.
`COCCC1(N)CCN(C(=O)Nc2ccc(CNC(=O)c3nn(C(C)C)c4c3CN(c3ccc(C(=O)N(C)C)cc3)C[C@@H]4C)cc2)CC1` [Example 708, (S)-N-(4-(4-amino-4-(2-methoxyethyl)piperidine-1-carboxamido)benzyl)-5-(4-(dimethylcarbamoyl)phenyl)-1-isopropyl-7-methyl-4,5,6,7-tetrahydro-1H-pyrazolo[4,3-c]pyridine-3-carboxamide] registered an IC50 in assay [1] (Homo sapiens, 48 h, human whole blood, IL-13 10 ng/mL) of 8 nM. For the same compound, the EC50 in assay [2] (setting [3]) stood at 1 nM.
In assay [1] (setting [7]), `CCC(C)n1nc(C(=O)NCc2ccc(NC(=O)N(C)C)cc2)c2c1CCN(c1ccc(C(=O)N(C)C)cn1)C2` (single isomer, unassigned) [Example 234, rel-(R or S)-1-(sec-butyl)-5-(5-(dimethylcarbamoyl)pyridin-2-yl)-N-(4-(3,3-dimethylureido)benzyl)-4,5,6,7-tetrahydro-1H-pyrazolo[4,3-c]pyridine-3-carboxamide] came in with an IC50 of 80 nM. Besides, the EC50 in assay [2] (setting [3]) amounted to 20 nM.
In assay [1] (setting [7]), `CC(C)n1nc(C(=O)NCc2ccc(-c3ncc[nH]3)cc2)c2c1[C@@H](C)CN(c1ncc(C(=O)N(C)C)cn1)C2` (single isomer, unassigned) [Example 335] registered an IC50 of 5 nM. For the same compound, in assay [2] (setting [3]), the EC50 was 1 nM.
`CCC1CN(c2ccc(C(=O)N(C)C)cn2)Cc2c(C(=O)NCc3ccc(NC(=O)N(C)C)cc3)nn(CC)c21` (racemic) [Example 115, rac-(R)-5-(5-(dimethylcarbamoyl)pyridin-2-yl)-N-(4-(3,3-dimethylureido)benzyl)-1,7-diethyl-4,5,6,7-tetrahydro-1H-pyrazolo[4,3-c]pyridine-3-carboxamide]: 12 nM corresponded to half-maximal inhibition in assay [1] (setting [5]) (IC50). The 50% effective concentration (EC50) in assay [2] (setting [6]) was determined as 2 nM.
Compound `CN[C@@H]1CCCN(C(=O)Nc2ccc(CNC(=O)c3nn(C(C)C)c4c3CN(c3ccc(C(=O)N(C)C)cc3)C[C@@H]4C)cc2F)C1` [Example 568, (S)-5-(4-(dimethylcarbamoyl)phenyl)-N-(3-fluoro-4-((R)-3-(methylamino)piperidine-1-carboxamido)benzyl)-1-isopropyl-7-methyl-4,5,6,7-tetrahydro-1H-pyrazolo[4,3-c]pyridine-3-carboxamide] came in with a half-inhibitory concentration (IC50) in assay [1] (setting [4]) of 13 nM. The half-maximal effective concentration (EC50) in assay [2] (setting [3]) worked out at 2 nM.
